# Assay results published in ChEMBL document CHEMBL5096234, “Discovery, Optimization, and Evaluation of Selective CDK4/6 Inhibitors for the Treatment of Breast Cancer” (J Med Chem, 2022).
# The source made the active and inactive calls. The rule behind the calls is not given here.
# Tests used:
# [1] = test system: MCF7; assay: Induction of cell cycle arrest in human MCF7 cells assessed as accumulation of cells at G2 phase at 3 uM incubated for 24 hrs by propidium iodide staining based flow cytometry analysis (reference value: 29.66%); format: functional
# [2] = target: T1, Retinoblastoma-associated protein (Homo sapiens) (UniProt P06400); assay: Inhibition of RB phosphorylation in human MCF7 cells at 1.5 to 5 uM incubated for 24 hrs by Western blot analysis; format: cell-based; details: dose 1.5-5 µM
# T1 sequence (whole entry): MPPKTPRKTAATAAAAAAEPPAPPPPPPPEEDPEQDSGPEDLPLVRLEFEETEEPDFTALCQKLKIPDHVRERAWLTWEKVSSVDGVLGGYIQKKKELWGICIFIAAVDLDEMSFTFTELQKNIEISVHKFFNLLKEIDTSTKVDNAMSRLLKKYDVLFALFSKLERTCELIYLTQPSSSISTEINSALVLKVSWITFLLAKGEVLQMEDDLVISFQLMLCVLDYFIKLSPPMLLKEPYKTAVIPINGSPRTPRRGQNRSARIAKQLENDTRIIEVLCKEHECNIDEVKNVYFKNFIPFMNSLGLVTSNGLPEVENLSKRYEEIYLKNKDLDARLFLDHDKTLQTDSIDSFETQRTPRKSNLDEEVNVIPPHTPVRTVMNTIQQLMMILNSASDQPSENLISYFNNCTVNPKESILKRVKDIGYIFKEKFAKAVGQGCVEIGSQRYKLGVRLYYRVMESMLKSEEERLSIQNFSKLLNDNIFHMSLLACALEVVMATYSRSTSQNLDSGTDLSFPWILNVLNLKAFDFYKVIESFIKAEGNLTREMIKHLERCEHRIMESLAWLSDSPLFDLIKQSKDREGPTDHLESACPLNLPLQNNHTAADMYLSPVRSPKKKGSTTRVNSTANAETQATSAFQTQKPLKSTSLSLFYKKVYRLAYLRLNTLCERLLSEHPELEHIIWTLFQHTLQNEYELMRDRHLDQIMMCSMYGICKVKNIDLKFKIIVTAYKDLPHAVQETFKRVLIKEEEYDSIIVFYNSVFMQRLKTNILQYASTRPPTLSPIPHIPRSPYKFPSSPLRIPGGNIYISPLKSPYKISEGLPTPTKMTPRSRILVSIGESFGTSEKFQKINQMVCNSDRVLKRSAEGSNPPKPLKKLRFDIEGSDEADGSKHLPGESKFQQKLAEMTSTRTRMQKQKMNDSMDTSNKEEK
# [3] = MRT (0 to infinity) in Sprague-Dawley rat 1 mg/kg, iv by LC/MS/MS analysis; format: ADME, organism-based; details: in vivo
# [4] = Cmax in Sprague-Dawley rat 1 mg/kg, iv by LC/MS/MS analysis; format: ADME, organism-based; parameters: dose 1 mg/kg, route iv; details: in vivo
# [5] = Tmax in Sprague-Dawley rat 1 mg/kg, iv by LC/MS/MS analysis; format: ADME, organism-based; details: in vivo
# [6] = MRT (0 to infinity) in Sprague-Dawley rat 10 mg/kg, po by LC/MS/MS analysis; format: ADME, organism-based; details: in vivo
# [7] = test system: MCF7; assay: Induction of cell cycle arrest in human MCF7 cells assessed as accumulation of cells at G2 phase at 6 uM incubated for 24 hrs by propidium iodide staining based flow cytometry analysis (reference value: 29.66%); format: functional
# [8] = AUC (0 to infinity) in Sprague-Dawley rat 1 mg/kg, iv by LC/MS/MS analysis; format: ADME, organism-based; parameters: time infinity, dose 1 mg/kg, route iv; details: in vivo
# [9] = target: T1, Retinoblastoma-associated protein (Homo sapiens); assay: Inhibition of RB phosphorylation in human T47D cells at 1 to 4 uM incubated for 24 hrs by Western blot analysis; format: cell-based; details: dose 1-4 µM
# [10] = test system: MCF7; assay: Induction of cell cycle arrest in human MCF7 cells assessed as accumulation of cells at G1 phase at 3 uM incubated for 24 hrs by propidium iodide staining based flow cytometry analysis (reference value: 57.38%); format: functional
# [11] = Cmax in Sprague-Dawley rat 10 mg/kg, po by LC/MS/MS analysis; format: ADME, organism-based; parameters: dose 10 mg/kg, route po; details: in vivo
# [12] = target: CDK9/cyclin T1 (Homo sapiens, UniProt P50750); assay: Inhibition of CDK9/Cyclin T1 (unknown origin) in presence of ATP by time resolved-FRET assay; format: protein-complex assay
# Chain of CDK9/cyclin T1 (O60563 whole entry): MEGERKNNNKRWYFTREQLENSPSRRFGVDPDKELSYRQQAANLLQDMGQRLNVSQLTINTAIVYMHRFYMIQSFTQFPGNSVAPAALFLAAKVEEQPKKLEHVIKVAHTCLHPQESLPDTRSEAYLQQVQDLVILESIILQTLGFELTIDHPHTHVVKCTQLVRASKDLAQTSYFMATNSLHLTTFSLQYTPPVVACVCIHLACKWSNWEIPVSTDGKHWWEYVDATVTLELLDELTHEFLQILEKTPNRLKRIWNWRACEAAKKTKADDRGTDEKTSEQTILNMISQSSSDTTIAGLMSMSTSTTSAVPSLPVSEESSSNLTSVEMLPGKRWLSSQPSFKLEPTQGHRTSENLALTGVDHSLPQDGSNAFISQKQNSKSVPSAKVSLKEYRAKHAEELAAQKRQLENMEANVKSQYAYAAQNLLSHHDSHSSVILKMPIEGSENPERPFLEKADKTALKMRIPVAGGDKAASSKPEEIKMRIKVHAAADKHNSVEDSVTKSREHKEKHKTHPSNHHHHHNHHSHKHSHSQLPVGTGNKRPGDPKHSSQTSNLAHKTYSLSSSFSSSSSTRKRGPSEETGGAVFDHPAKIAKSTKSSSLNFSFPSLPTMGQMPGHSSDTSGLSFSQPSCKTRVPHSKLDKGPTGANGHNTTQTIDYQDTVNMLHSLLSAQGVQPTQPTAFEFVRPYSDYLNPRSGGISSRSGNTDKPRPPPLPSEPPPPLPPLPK
# Chain of CDK9/cyclin T1 (P50750 whole entry): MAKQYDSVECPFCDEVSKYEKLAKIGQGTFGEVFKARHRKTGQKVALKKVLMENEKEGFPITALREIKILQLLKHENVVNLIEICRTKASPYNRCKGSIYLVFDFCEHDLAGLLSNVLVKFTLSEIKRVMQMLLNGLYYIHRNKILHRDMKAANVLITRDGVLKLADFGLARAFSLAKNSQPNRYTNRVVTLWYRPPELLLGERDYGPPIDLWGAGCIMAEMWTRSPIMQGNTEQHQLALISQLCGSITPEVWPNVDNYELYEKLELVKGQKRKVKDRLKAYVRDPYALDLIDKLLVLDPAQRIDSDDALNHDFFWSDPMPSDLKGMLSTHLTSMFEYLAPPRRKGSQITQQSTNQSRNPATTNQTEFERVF
# [13] = Acute toxicity in ICR mouse assessed as change in liver weight at 1000 to 5000 mg/kg, po administered as single dose and measured every 2 days for 14 days; format: organism-based; details: in vivo, 336 h, dose 1000-5000 mg/kg, time 14 day
# [14] = test system: ZR-75-1; assay: Antiproliferative activity against human ZR-75-1 cells assessed as cell growth inhibition incubated for 72 hrs by CCK-8 assay; format: functional
# [15] = test system: MCF7; assay: Antiproliferative activity against human MCF7 cells assessed as cell growth inhibition incubated for 72 hrs by CCK-8 assay; format: functional
# [16] = Acute toxicity in ICR mouse assessed as animal death at 5000 mg/kg, po administered as single dose and measured every 2 days for 14 days; format: organism-based; details: in vivo, 336 h, time 14 day
# [17] = test system: T47D; assay: Downregulation c-MYC level in human T47D cells incubated for 24 hrs by Western blot analysis; format: functional, cell-based; details: dose 1-4 µM, DDE = dose-dependent effect
# [18] = test system: T47D; assay: Inhibition of clone formation in human T47D cells at 1 to 8 uM by crystal voilet staining based analysis; format: functional, cell-based; details: dose 1-8 µM, time 2.0 weeks
# [19] = test system: T47D; assay: Induction of cell cycle arrest in human T47D cells assessed as accumulation of cells at G1 phase at 2 uM incubated for 24 hrs by propidium iodide staining based flow cytometry analysis (reference value: 69.55 %); format: functional
# [20] = test system: T47D; assay: Antiproliferative activity against human T47D cells assessed as cell growth inhibition incubated for 72 hrs by CCK-8 assay; format: functional
# [21] = Acute toxicity in ICR mouse assessed as heart lesions at 5000 mg/kg, po administered as single dose and measured every 2 days for 14 days by H and E staining based analysis; format: organism-based; details: in vivo, 336 h, time 14 day
# [22] = Toxicity in BALB/c mouse xenografted with human MCF7 cells assessed as increase in body weight at 100 to 150 mg/kg, po administered once daily and measured every 2 days for 23 days; format: organism-based; details: in vivo, 552 h, dose 100-150 mg/kg, time 23 day
# [23] = test system: T47D; assay: Antiproliferative activity against human T47D cells assessed as inhibition of cell growth at 1 to 4 uM incubated for 5 days by CCK-8 assay; format: functional, cell-based; details: dose 1-4 µM, time 5.0 day
compound,measurement,setting,value
CCN1CCc2cc(-c3nc(Nc4ccc(N5CCNCC5)cn4)ncc3F)ccc2C1=O,Activity,[1],11.42%
same,inhibition,[2],Active
same,MRT inf,[3],3.5 h
same,Cmax,[4],291 ng/mL
same,Tmax,[5],1.98 min
same,MRT inf,[6],9.11 h
same,Activity,[7],10.67%
same,AUC(0-inf),[8],373 ng·h/mL
same,inhibition,[9],Active
same,Activity,[10],83.91%
same,Cmax,[11],144 ng/mL
same,IC50,[12],2.66 µM
same,Activity,[13],Non-Toxic
same,GI50,[14],3.2 µM
same,GI50,[15],2.7 µM
same,Activity,[16],Non-Toxic
same,Activity,[17],Dde
same,inhibition,[18],Active
same,Activity,[19],85.48%
same,GI50,[20],0.887 µM
same,Activity,[21],Non-Toxic
same,Activity,[22],Non-Toxic
same,inhibition,[23],Active
